Results on one substance are retold here after US8987481B1, “Method for isolation of bulk anthocyanidins and other bioactives” (priority 2013, dated 2015).

A short description of this data set: Storage stability of isolated anthocyanidins. The class given is physicochemical. As for the experimental part: The isolated anthos are stable when stored in amber bottles under argon at −20° C. […] However, when bound to cellulose, these compounds can be stabilized for a long period of time. Edible cellulose formulations that are used routinely in beverage and food industries are commercially available. Therefore, anthos isolated by the method described here can be readily stabilized with edible cellulose or pectin or other edible materials and used in beverages and foods to provide natural colors, as well as used as nutraceuticals and provide health benefits due to known antioxidant, antiproliferative and anticancer activities of anthos.

For the substance anthocyanins, the “stability in solution form” value is listed as “highly unstable”.
